Earlier results, collected in patent publication US20140194400A1, “Nasal Pharmaceutical Formulation” (Meda Pharma GmbH & Co., Kg, priority 2011, published 2014).

oral absorption: about 1%
Compound: C[C@@H]1C[C@H]2[C@@H]3C[C@H](F)C4=CC(=O)C=C[C@]4(C)[C@@]3(F)[C@@H](O)C[C@]2(C)[C@@]1(O)C(=O)SCF [fluticasone]
